Laboratory results reported in patent US10167262B2, “Herbicidal substituted 3-arylpyrazoles” (FMC CORPORATION, priority 2014, dated 2019).

Legend:
Assay in all cases: Test E pre-/postemergence greenhouse test, plant response rating 0-100
Assay type in all cases: in vivo
[1] = system: dayflower (Virginia (VA) dayflower, Commelina virginica); details: scale 0 to 100; for Dayflower, VA plant response rating: Preemergence
Procedure, shortened: (§1)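 Seeds sown in silt loam soil received preemergence treatment with compound in a non-phytotoxic solvent mixture containing surfactant. Postemergence, plants at 2–18 cm (1- to 4-leaf stage) in peat/vermiculite medium were sprayed with the same formulation. Visual injury versus untreated controls was rated 0–100 after 14 to 21 days in the greenhouse.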

[2] = system: field bindweed (Convolvulus arvensis); details: scale 0 to 100; for Field Bindweed plant response rating: Preemergence
Procedure, shortened: as §1

[3] = system: palmer pigweed (Amaranthus palmeri); details: scale 0 to 100; for Pigweed, Palmer plant response rating: Preemergence
Procedure, shortened: as §1

[4] = system: hairy beggarticks (Bidens pilosa); details: scale 0 to 100; for Beggarticks plant response rating: Preemergence
Procedure, shortened: as §1

[5] = system: barnyardgrass (Echinochloa crus-galli); details: scale 0 to 100; for Barnyardgrass plant response rating: Preemergence
Procedure, shortened: as §1

[6] = system: Italian ryegrass (Lolium multiflorum); details: scale 0 to 100; for Ryegrass, Italian plant response rating: Preemergence
Procedure, shortened: as §1

corn (Zea mays) = details: scale 0 to 100; for Corn plant response rating: Preemergence
Procedure, shortened: as §1

[7] = system: arrowleaf sida (Sida rhombifolia); details: for Arrowleaf Sida plant response rating: Preemergence
Procedure, shortened: as §1

[8] = system: wild poinsettia (Euphorbia heterophylla); details: scale 0 to 100; for Poinsettia, Wild plant response rating: Preemergence
Procedure, shortened: as §1

[9] = system: waterhemp (common waterhemp, Amaranthus rudis); details: scale 0 to 100; for Waterhemp plant response rating: Preemergence
Procedure, shortened: as §1

[10] = system: sandbur (southern sandbur, Cenchrus echinatus); details: scale 0 to 100; for Sandbur plant response rating: Preemergence
Procedure, shortened: as §1

[11] = system: Brazilian crabgrass (Digitaria horizontalis); details: Digitaria horizontalis, post-emergence, Postemergence, scale 0 to 100, read-out: Plant response rating, Crabgrass, Brazil
Procedure, shortened: as §1

COCC(=O)n1cc(C(=O)c2ccccc2)c(-c2cc(Cl)cc(Cl)c2)n1 [Compound 16, 1-[4-benzoyl-3-(3,5-dichlorophenyl)-1H-pyrazol-1-yl]-2-methoxyethanone]
pest or weed control at 31 g/ha ([1]; Commelina virginica, post-emergence, Postemergence, 31 g ai/ha): 0%
pest or weed control at 62 g/ha ([1]; Commelina virginica, post-emergence, Postemergence, 62 g ai/ha): 0%
pest or weed control at 125 g/ha ([1]; Commelina virginica, post-emergence, Postemergence, 125 g ai/ha): 0%
pest or weed control at 250 g/ha ([1]; Commelina virginica, post-emergence, Postemergence, 250 g ai/ha): 0%
pest or weed control at 500 g/ha ([1]; Commelina virginica, post-emergence, Postemergence, 500 g ai/ha): 0%
Dayflower, VA plant response rating ([1]; 31 g ai/ha): 0
Dayflower, VA plant response rating ([1]; 62 g ai/ha): 0
Dayflower, VA plant response rating ([1]; 125 g ai/ha): 0
Dayflower, VA plant response rating ([1]; 250 g ai/ha): 0
Dayflower, VA plant response rating ([1]; 500 g ai/ha): 0
pest or weed control at 31 g/ha ([2]; Convolvulus arvensis, post-emergence, Postemergence, 31 g ai/ha): 0%
pest or weed control at 62 g/ha ([2]; Convolvulus arvensis, post-emergence, Postemergence, 62 g ai/ha): 0%
pest or weed control at 125 g/ha ([2]; Convolvulus arvensis, post-emergence, Postemergence, 125 g ai/ha): 0%
pest or weed control at 250 g/ha ([2]; Convolvulus arvensis, post-emergence, Postemergence, 250 g ai/ha): 0%
pest or weed control at 500 g/ha ([2]; Convolvulus arvensis, post-emergence, Postemergence, 500 g ai/ha): 0%
Field Bindweed plant response rating ([2]; 31 g ai/ha): 0
Field Bindweed plant response rating ([2]; 62 g ai/ha): 0
Field Bindweed plant response rating ([2]; 125 g ai/ha): 0
Field Bindweed plant response rating ([2]; 250 g ai/ha): 0
Field Bindweed plant response rating ([2]; 500 g ai/ha): 30
pest or weed control at 31 g/ha ([3]; Amaranthus palmeri, post-emergence, Postemergence, 31 g ai/ha): 70%
pest or weed control at 62 g/ha ([3]; Amaranthus palmeri, post-emergence, Postemergence, 62 g ai/ha): 70%
pest or weed control at 125 g/ha ([3]; Amaranthus palmeri, post-emergence, Postemergence, 125 g ai/ha): 90%
pest or weed control at 250 g/ha ([3]; Amaranthus palmeri, post-emergence, Postemergence, 250 g ai/ha): 90%
pest or weed control at 500 g/ha ([3]; Amaranthus palmeri, post-emergence, Postemergence, 500 g ai/ha): 100%
Pigweed, Palmer plant response rating ([3]; 31 g ai/ha): 0
Pigweed, Palmer plant response rating ([3]; 62 g ai/ha): 0
Pigweed, Palmer plant response rating ([3]; 125 g ai/ha): 0
Pigweed, Palmer plant response rating ([3]; 250 g ai/ha): 0
Pigweed, Palmer plant response rating ([3]; 500 g ai/ha): 0
pest or weed control at 31 g/ha ([4]; Bidens pilosa, post-emergence, Postemergence, 31 g ai/ha): 95%
pest or weed control at 62 g/ha ([4]; Bidens pilosa, post-emergence, Postemergence, 62 g ai/ha): 100%
pest or weed control at 125 g/ha ([4]; Bidens pilosa, post-emergence, Postemergence, 125 g ai/ha): 98%
pest or weed control at 250 g/ha ([4]; Bidens pilosa, post-emergence, Postemergence, 250 g ai/ha): 98%
pest or weed control at 500 g/ha ([4]; Bidens pilosa, post-emergence, Postemergence, 500 g ai/ha): 98%
Beggarticks plant response rating ([4]; 31 g ai/ha): 0
Beggarticks plant response rating ([4]; 62 g ai/ha): 0
Beggarticks plant response rating ([4]; 125 g ai/ha): 25
Beggarticks plant response rating ([4]; 250 g ai/ha): 50
Beggarticks plant response rating ([4]; 500 g ai/ha): 65
pest or weed control at 31 g/ha ([5]; Echinochloa crus-galli, post-emergence, Postemergence, 31 g ai/ha): 0%
pest or weed control at 62 g/ha ([5]; Echinochloa crus-galli, post-emergence, Postemergence, 62 g ai/ha): 0%
pest or weed control at 125 g/ha ([5]; Echinochloa crus-galli, post-emergence, Postemergence, 125 g ai/ha): 0%
pest or weed control at 250 g/ha ([5]; Echinochloa crus-galli, post-emergence, Postemergence, 250 g ai/ha): 0%
pest or weed control at 500 g/ha ([5]; Echinochloa crus-galli, post-emergence, Postemergence, 500 g ai/ha): 0%
Barnyardgrass plant response rating ([5]; 31 g ai/ha): 0
Barnyardgrass plant response rating ([5]; 62 g ai/ha): 0
Barnyardgrass plant response rating ([5]; 125 g ai/ha): 0
Barnyardgrass plant response rating ([5]; 250 g ai/ha): 0
Barnyardgrass plant response rating ([5]; 500 g ai/ha): 0
pest or weed control at 31 g/ha ([6]; Lolium multiflorum, post-emergence, Postemergence, 31 g ai/ha): 0%
pest or weed control at 62 g/ha ([6]; Lolium multiflorum, post-emergence, Postemergence, 62 g ai/ha): 0%
pest or weed control at 125 g/ha ([6]; Lolium multiflorum, post-emergence, Postemergence, 125 g ai/ha): 0%
pest or weed control at 250 g/ha ([6]; Lolium multiflorum, post-emergence, Postemergence, 250 g ai/ha): 0%
pest or weed control at 500 g/ha ([6]; Lolium multiflorum, post-emergence, Postemergence, 500 g ai/ha): 0%
Ryegrass, Italian plant response rating ([6]; 31 g ai/ha): 0
Ryegrass, Italian plant response rating ([6]; 62 g ai/ha): 0
Ryegrass, Italian plant response rating ([6]; 125 g ai/ha): 0
Ryegrass, Italian plant response rating ([6]; 250 g ai/ha): 0
Ryegrass, Italian plant response rating ([6]; 500 g ai/ha): 0
Corn plant response rating (corn (Zea mays); 31 g ai/ha): 0
Corn plant response rating (corn (Zea mays); 62 g ai/ha): 0
Corn plant response rating (corn (Zea mays); 125 g ai/ha): 0
Corn plant response rating (corn (Zea mays); 250 g ai/ha): 0
Corn plant response rating (corn (Zea mays); 500 g ai/ha): 0
Corn plant response rating (crop injury, 0 = no effect, 100 = complete kill) at 31 g/ha (corn (Zea mays); Zea mays, post-emergence, Postemergence, 31 g ai/ha): 0%
Corn plant response rating (crop injury, 0 = no effect, 100 = complete kill) at 62 g/ha (corn (Zea mays); Zea mays, post-emergence, Postemergence, 62 g ai/ha): 0%
Corn plant response rating (crop injury, 0 = no effect, 100 = complete kill) at 125 g/ha (corn (Zea mays); Zea mays, post-emergence, Postemergence, 125 g ai/ha): 0%
Corn plant response rating (crop injury, 0 = no effect, 100 = complete kill) at 250 g/ha (corn (Zea mays); Zea mays, post-emergence, Postemergence, 250 g ai/ha): 0%
Corn plant response rating (crop injury, 0 = no effect, 100 = complete kill) at 500 g/ha (corn (Zea mays); Zea mays, post-emergence, Postemergence, 500 g ai/ha): 0%
Arrowleaf Sida plant response rating ([7]; 31 g ai/ha, scale 0 to 100): 25
Arrowleaf Sida plant response rating ([7]; 62 g ai/ha, scale 0 to 100): 35
Arrowleaf Sida plant response rating ([7]; 125 g ai/ha, scale 0 to 100): 90
Arrowleaf Sida plant response rating ([7]; 250 g ai/ha, scale 0 to 100): 95
Arrowleaf Sida plant response rating ([7]; 500 g ai/ha, scale 0 to 100): 100
pest or weed control at 31 g/ha ([7]; Sida rhombifolia, post-emergence, Postemergence, 31 g ai/ha, scale 0 to 100): 95%
pest or weed control at 62 g/ha ([7]; Sida rhombifolia, post-emergence, Postemergence, 62 g ai/ha, scale 0 to 100): 98%
pest or weed control at 125 g/ha ([7]; Sida rhombifolia, post-emergence, Postemergence, 125 g ai/ha, scale 0 to 100): 98%
pest or weed control at 250 g/ha ([7]; Sida rhombifolia, post-emergence, Postemergence, 250 g ai/ha, scale 0 to 100): 98%
pest or weed control at 500 g/ha ([7]; Sida rhombifolia, post-emergence, Postemergence, 500 g ai/ha, scale 0 to 100 (0 no effect, 100 complete control)): 100%
pest or weed control at 31 g/ha ([8]; Euphorbia heterophylla, post-emergence, Postemergence, 31 g ai/ha, read-out: Plant response rating, Poinsettia, Wild): 0%
pest or weed control at 62 g/ha ([8]; Euphorbia heterophylla, post-emergence, Postemergence, 62 g ai/ha, read-out: Plant response rating, Poinsettia, Wild): 0%
pest or weed control at 125 g/ha ([8]; Euphorbia heterophylla, post-emergence, Postemergence, 125 g ai/ha, read-out: Plant response rating, Poinsettia, Wild): 0%
pest or weed control at 250 g/ha ([8]; Euphorbia heterophylla, post-emergence, Postemergence, 250 g ai/ha, read-out: Plant response rating, Poinsettia, Wild): 0%
pest or weed control at 500 g/ha ([8]; Euphorbia heterophylla, post-emergence, Postemergence, 500 g ai/ha, read-out: Plant response rating, Poinsettia, Wild): 0%
Poinsettia, Wild plant response rating ([8]; 31 g ai/ha): 0
Poinsettia, Wild plant response rating ([8]; 62 g ai/ha): 0
Poinsettia, Wild plant response rating ([8]; 125 g ai/ha): 0
Poinsettia, Wild plant response rating ([8]; 250 g ai/ha): 0
Poinsettia, Wild plant response rating ([8]; 500 g ai/ha): 0
pest or weed control at 31 g/ha ([9]; Amaranthus tuberculatus, post-emergence, Postemergence, 31 g ai/ha): 95%
pest or weed control at 62 g/ha ([9]; Amaranthus tuberculatus, post-emergence, Postemergence, 62 g ai/ha): 98%
pest or weed control at 125 g/ha ([9]; Amaranthus tuberculatus, post-emergence, Postemergence, 125 g ai/ha): 98%
pest or weed control at 250 g/ha ([9]; Amaranthus tuberculatus, post-emergence, Postemergence, 250 g ai/ha): 98%
pest or weed control at 500 g/ha ([9]; Amaranthus tuberculatus, post-emergence, Postemergence, 500 g ai/ha): 100%
Waterhemp plant response rating ([9]; 31 g ai/ha): 0
Waterhemp plant response rating ([9]; 62 g ai/ha): 30
Waterhemp plant response rating ([9]; 125 g ai/ha): 70
Waterhemp plant response rating ([9]; 250 g ai/ha): 100
Waterhemp plant response rating ([9]; 500 g ai/ha): 100
pest or weed control at 31 g/ha ([10]; Cenchrus echinatus, post-emergence, Postemergence, 31 g ai/ha): 0%
pest or weed control at 62 g/ha ([10]; Cenchrus echinatus, post-emergence, Postemergence, 62 g ai/ha): 0%
pest or weed control at 125 g/ha ([10]; Cenchrus echinatus, post-emergence, Postemergence, 125 g ai/ha): 0%
pest or weed control at 250 g/ha ([10]; Cenchrus echinatus, post-emergence, Postemergence, 250 g ai/ha): 0%
pest or weed control at 500 g/ha ([10]; Cenchrus echinatus, post-emergence, Postemergence, 500 g ai/ha): 0%
Sandbur plant response rating ([10]; 31 g ai/ha): 0
Sandbur plant response rating ([10]; 62 g ai/ha): 0
Sandbur plant response rating ([10]; 125 g ai/ha): 0
Sandbur plant response rating ([10]; 250 g ai/ha): 0
Sandbur plant response rating ([10]; 500 g ai/ha): 0
pest or weed control at 31 g/ha ([11]; 31 g ai/ha): 0%
pest or weed control at 62 g/ha ([11]; 62 g ai/ha): 0%
pest or weed control at 125 g/ha ([11]; 125 g ai/ha): 0%
pest or weed control at 250 g/ha ([11]; 250 g ai/ha): 0%
pest or weed control at 500 g/ha ([11]; 500 g ai/ha): 0%
